The target of experiment [1] is T1, B-RAF G466V (Homo sapiens, UniProt P15056, G466V).
T1 construct: expressed in transfected cells; host or cells: T-Rex 293 cells (Invitrogen #R71007)
Put plainly: Target protein degradation, assay B: T-Rex 293 cells, HA-B-RAF_G466V, 96 well format. To be noted: T-Rex 293 HA-B-RAF_G466V cells, 24 hours, Examples 1-82. Format: cell-based. As to the method:
B. T-Rex 293 Cells (96 Well Format)
(§1) T-Rex 293 cells were purchased from Invitrogen (#R71007), and stably transfected with a pcDNA4/TO_HA-B-RAF_G466V construct, using 400 ug Zeocin for selection. G466V cells are plated in ulbecco's Modified Eagle Medium (DMEM; Gibco #11965118) containing 10% fetal bovine serum (FBS; Gibco #16000044) and 0.75 ng/mL doxycycline (Selleckchem #4163) at a density of 5,000 cells/well in 50 μl on poly-D-lysine (PDL) coated, black clear bottom 96-well plates (Corning #354640) and incubated for 24 hours at 37° C. with 5% CO2. The following day 50 ul of tested compound was added at 2× concentration in DMEM with a final concentration ranging from 30 nM to 3 pM in 0.1% dimethylsulfoxide (DMSO), and incubated for 24 hours at 37° C. with 5% CO2. At the end of the experimental treatment, the media was flicked off and cells washed once with phosphate-buffered saline (PBS)++(PBS with CaCl and MgCl) and gently replacing with 200 μl PBS++ per well. The PBS++ was removed and 50 uL 4% paraformaldehyde (PFA; EMS #15710) in PBS++ was added, and incubate at room temperature for 15 minutes. Cells were washed once with PBS++ and 50 uL 0.1% Triton X-100 (Fisher #BP151-500) in PBS++ was added. Plate was incubate for 5 minutes at room temperature. Cells were was once with PBS++. Cells were blocked with 100 uL Licor blocking buffer (Licor #927-50000) for 1 hour at room temperature. Next, 50 uL of HA antibody (CST #3724) at 1:1000 in Licor blocking buffer was added, and the plate icubate overnight at 4° C. The plates were parafilmed to prevent evaporation. Plate was washed three times with 200 uL PBS++. Fifty microliters of HCS secondary antibody solution [1:1000 Hoechst (Invitrogen #H3570), 1:1000 phalloidin (Invitrogen #A22287) and 1:5000 Alexa fluor (Invitrogen #A11008)] was added and incubated for 1 hour. Plate was wash three times with 200 uL PBS++, and imaged on a high content reader (ImageXpress Micro XLS, Molecular Devices).
(§2) The concentration of an exemplary compound that leads to half maximal degradation (DC50) as well as the maximum degradation observed (Dmax, conventionally expressed as a percentage of control) is shown below in Table 2.

Experiment [2] deals with T2, B-RAF V600E (Homo sapiens, UniProt P15056, V600E).
T2 construct: expressed in transfected cells; host or cells: T-Rex 293 cells (Invitrogen #R71007)
Put plainly: Target protein degradation, assay A: T-Rex 293 cells, HA-B-RAF_V600E, 96 well format. To be noted: T-Rex 293 HA-B-RAF_V600E cells, 24 hours, Examples 1-82. In kind it is cell-based. As to the method:
A. T-Rex 293 Cells (96 well format)
as §1, with “pcDNA4/TO_HA-B-RAF_V600E” for “pcDNA4/TO_HA-B-RAF_G466V”, “V600e” for “G466V”, “1” for “0.75”, “1 μM to 0.1” for “30”, “nM” for “nM to 3 pM”
as §2

Bounds are passed on as bounds.

T1 sequence (P15056 whole entry G466V): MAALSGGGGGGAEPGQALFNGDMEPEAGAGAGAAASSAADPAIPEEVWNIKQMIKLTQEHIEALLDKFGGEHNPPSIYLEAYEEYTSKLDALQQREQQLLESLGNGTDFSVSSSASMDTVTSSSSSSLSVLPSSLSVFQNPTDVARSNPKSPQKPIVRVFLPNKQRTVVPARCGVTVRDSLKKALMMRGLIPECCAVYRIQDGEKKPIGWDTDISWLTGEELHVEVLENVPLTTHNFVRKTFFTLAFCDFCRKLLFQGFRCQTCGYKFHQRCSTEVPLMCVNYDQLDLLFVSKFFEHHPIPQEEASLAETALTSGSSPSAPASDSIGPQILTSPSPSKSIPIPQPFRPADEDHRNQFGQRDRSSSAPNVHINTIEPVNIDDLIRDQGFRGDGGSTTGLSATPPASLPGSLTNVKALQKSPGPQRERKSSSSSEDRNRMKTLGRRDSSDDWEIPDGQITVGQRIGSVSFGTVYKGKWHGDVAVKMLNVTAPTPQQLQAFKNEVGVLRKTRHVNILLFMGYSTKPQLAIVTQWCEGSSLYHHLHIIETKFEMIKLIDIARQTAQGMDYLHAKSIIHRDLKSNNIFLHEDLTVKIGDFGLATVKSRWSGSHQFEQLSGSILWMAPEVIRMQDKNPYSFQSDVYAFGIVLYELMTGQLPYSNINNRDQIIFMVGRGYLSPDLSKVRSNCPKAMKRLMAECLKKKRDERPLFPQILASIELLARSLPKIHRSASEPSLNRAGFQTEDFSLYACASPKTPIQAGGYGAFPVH
T2 sequence (P15056 whole entry V600E): as the sequence (P15056 whole entry G466V) above, with V466G, V600E counted along it

What is called DC50 is the midpoint of the concentration-degradation curve. Low values mean degradation at low concentration, high ones degradation only at high concentration. As usually defined, the Dmax is the largest share of the target that was removed. A higher Dmax goes with deep degradation. In experiment [1], `N#Cc1c(NS(=O)(=O)N2CC[C@@H](F)C2)ccc(F)c1Oc1ccc2ncn(-c3ccc(N4CCN(CC5CCN(c6ccc([C@H]7CCC(=O)NC7=O)cc6F)CC5)CC4)cc3)c(=O)c2c1` (single isomer, unassigned) [Example 80, (3R)—N-(2-cyano-3-{[3-(4-{4-[(1-{4-[(3R*)-2,6-dioxopiperidin-3-yl]-2-fluorophenyl}piperidin-4-yl)methyl]piperazin-1-yl}phenyl)-4-oxo-3,4-dihydroquinazolin-6-yl]oxy}-4-fluorophenyl)-3-fluoropyrrolidine-1-sulfonamide] registered a DC50 of 0.001 to 0.01 µM and a Dmax of 35 to 70%. Besides, in experiment [2], the half-maximal degradation concentration (DC50) was in the range of 0.05 to 0.5 µM and the greatest degradation seen (Dmax) was 35 to 70%.
With `N#Cc1c(NS(=O)(=O)N2CC[C@@H](F)C2)ccc(F)c1Oc1ccc2ncn(-c3ccc(N4CCN(CC5CCN(c6ccc7c(c6)CN(C6CCC(=O)NC6=O)C7=O)CC5)CC4)cc3)c(=O)c2c1` (stereo partly drawn) [Example 1, (3R)—N-[2-cyano-3-[3-[4-[4-[[1-[2-(2,6-dioxo-3-piperidyl)-1-oxo-isoindolin-5-yl]-4-piperidyl]methyl]piperazin-1-yl]phenyl]-4-oxo-quinazolin-6-yl]oxy-4-fluoro-phenyl]-3-fluoro-pyrrolidine-1-sulfonamide], the DC50 in experiment [1] was ≤ 0.001 µM; in experiment [2], 0.005 to 0.05 µM. Moreover, the Dmax in experiment [1] and in experiment [2] was 35 to 70% throughout.
`N#Cc1c(NS(=O)(=O)N2CC[C@@H](F)C2)ccc(F)c1Oc1ccc2ncn(-c3ccc(N4CCN(CC5CN(c6ccc7c(c6)CN(C6CCC(=O)NC6=O)C7=O)C5)CC4)cc3)c(=O)c2c1` (stereo partly drawn) [Example 2, (3R)—N-{2-cyano-3-[(3-{4-[4-({1-[2-(2,6-dioxopiperidin-3-yl)-1-oxo-2,3-dihydro-1H-isoindol-5-yl]azetidin-3-yl}methyl)piperazin-1-yl]phenyl}-4-oxo-3,4-dihydroquinazolin-6-yl)oxy]-4-fluorophenyl}-3-fluoropyrrolidine-1-sulfonamide]: in experiment [1], the DC50 is ≤ 0.001 µM and the maximal degradation (Dmax) is 35 to 70%. Moreover, in experiment [2], the DC50 lay in the range of 0.05 to 0.5 µM and the Dmax is ≤ 35%.
For `N#Cc1c(NS(=O)(=O)N2CC[C@@H](F)C2)ccc(F)c1Oc1ccc2ncn(-c3ccc(N4CCN(CC5CCN(c6ccc7c(c6)CN(C6CCC(=O)NC6=O)C7=O)CC5)CC4)nc3)c(=O)c2c1` (stereo partly drawn) [Example 3, (3R)—N-[2-cyano-3-[3-[6-[4-[[1-[2-(2,6-dioxo-3-piperidyl)-1-oxo-isoindolin-5-yl]-4-piperidyl]methyl]piperazin-1-yl]-3-pyridyl]-4-oxo-quinazolin-6-yl]oxy-4-fluoro-phenyl]-3-fluoro-pyrrolidine-1-sulfonamide], the DC50 in experiment [1] fell in the range of 0.001 to 0.01 µM; in experiment [2], 0.05 to 0.5 µM. The greatest degradation seen (Dmax) in experiment [1] is 35 to 70%; in experiment [2], ≤ 35%.
On to `N#Cc1c(NS(=O)(=O)N2CC[C@@H](F)C2)ccc(F)c1Oc1ccc2ncn(-c3ccc(N4CCN(C(=O)CC5(O)CCN(c6ccc7c(c6)CN([C@H]6CCC(=O)NC6=O)C7=O)CC5)CC4)cc3)c(=O)c2c1` [Example 4, (3R)—N-(2-cyano-3-{[3-(4-{4-[2-(1-{2-[(3S)-2,6-dioxopiperidin-3-yl]-1-oxo-2,3-dihydro-1H-isoindol-5-yl}-4-hydroxypiperidin-4-yl)acetyl]piperazin-1-yl}phenyl)-4-oxo-3,4-dihydroquinazolin-6-yl]oxy}-4-fluorophenyl)-3-fluoropyrrolidine-1-sulfonamide], for which the half-maximal degradation concentration (DC50) fell in the range of 0.001 to 0.01 µM in experiment [1] and 0.005 to 0.05 µM in experiment [2]. Also, the Dmax in experiment [1] and in experiment [2] was 35 to 70% in each case.
For the molecule `N#Cc1c(NS(=O)(=O)N2CC[C@@H](F)C2)ccc(F)c1Oc1ccc2ncn(-c3ccc(N4CCN(c5ccc6c(c5)CN(C5CCC(=O)NC5=O)C6=O)CC4)cc3)c(=O)c2c1` (stereo partly drawn) [Example 5, (3R)—N-[2-cyano-3-[3-[4-[4-[2-(2,6-dioxo-3-piperidyl)-1-oxo-isoindolin-5-yl]piperazin-1-yl]phenyl]-4-oxo-quinazolin-6-yl]oxy-4-fluoro-phenyl]-3-fluoro-pyrrolidine-1-sulfonamide], the DC50 is > 0.03 µM in experiment [1] and > 0.5 µM in experiment [2].
On to `N#Cc1c(NS(=O)(=O)N2CC[C@@H](F)C2)ccc(F)c1Oc1ccc2ncn(C3CCN(CC4CCN(c5ccc6c(c5)CN(C5CCC(=O)NC5=O)C6=O)CC4)CC3)c(=O)c2c1` (stereo partly drawn) [Example 6, (3R)-N-[2-cyano-3-({3-[1-({1-[2-(2,6-dioxopiperidin-3-yl)-1-oxo-2,3-dihydro-1H-isoindol-5-yl]piperidin-4-yl}methyl)piperidin-4-yl]-4-oxo-3,4-dihydroquinazolin-6-yl}oxy)-4-fluorophenyl]-3-fluoropyrrolidine-1-sulfonamide], for which the figures for the DC50 in experiment [1] and in experiment [2] were ≤ 0.001 µM and > 0.5 µM, respectively. For the same molecule, the maximal degradation (Dmax) in experiment [1] was ≤ 35%.
Regarding `N#Cc1c(NS(=O)(=O)N2CC[C@@H](F)C2)ccc(F)c1Oc1ccc2ncn(C3CCN(CCN4CCN(c5ccc6c(c5)CN(C5CCC(=O)NC5=O)C6=O)CC4)CC3)c(=O)c2c1` (stereo partly drawn) [Example 7, (3R)-N-[2-cyano-3-({3-[1-(2-{4-[2-(2,6-dioxopiperidin-3-yl)-1-oxo-2,3-dihydro-1H-isoindol-5-yl]piperazin-1-yl}ethyl)piperidin-4-yl]-4-oxo-3,4-dihydroquinazolin-6-yl}oxy)-4-fluorophenyl]-3-fluoropyrrolidine-1-sulfonamide], in experiment [1], the 50% degradation concentration (DC50) lay within 0.01 to 0.03 µM and the greatest degradation seen (Dmax) lay within 35 to 70%. Besides, in experiment [2], the half-maximal degradation concentration (DC50) was > 0.5 µM and the Dmax lay in the range of 35 to 70%.
With `N#Cc1c(NS(=O)(=O)N2CC[C@@H](F)C2)ccc(F)c1Oc1ccc2ncn(-c3ccc(N4CCN(CC5CN(c6ccc7c(c6)CN(C6CCC(=O)NC6=O)C7=O)C5)CC4)nc3)c(=O)c2c1` (stereo partly drawn) [Example 8, (3R)-N-{2-cyano-3-[(3-{6-[4-({1-[2-(2,6-dioxopiperidin-3-yl)-1-oxo-2,3-dihydro-1H-isoindol-5-yl]azetidin-3-yl}methyl)piperazin-1-yl]pyridin-3-yl}-4-oxo-3,4-dihydroquinazolin-6-yl)oxy]-4-fluorophenyl}-3-fluoropyrrolidine-1-sulfonamide], the half-maximal degradation concentration (DC50) in experiment [1] was in the range of 0.001 to 0.01 µM; in experiment [2], 0.05 to 0.5 µM. Also, the Dmax in experiment [1] was ≤ 35%; in experiment [2], 35 to 70%.
Regarding `N#Cc1c(NS(=O)(=O)N2CC[C@@H](F)C2)ccc(F)c1Oc1ccc2ncn(-c3cnc(N4CCN(CC5CN(c6ccc7c(c6)CN(C6CCC(=O)NC6=O)C7=O)C5)CC4)nc3)c(=O)c2c1` (stereo partly drawn) [Example 9, (3R)-N-{2-cyano-3-[(3-{2-[4-({1-[2-(2,6-dioxopiperidin-3-yl)-1-oxo-2,3-dihydro-1H-isoindol-5-yl]azetidin-3-yl}methyl)piperazin-1-yl]pyrimidin-5-yl}-4-oxo-3,4-dihydroquinazolin-6-yl)oxy]-4-fluorophenyl}-3-fluoropyrrolidine-1-sulfonamide], the half-maximal degradation concentration (DC50) in experiment [1] is > 0.03 µM. In experiment [2], the half-maximal degradation concentration (DC50) is 0.05 to 0.5 µM and the Dmax lay in the range of 35 to 70%.

Values taken from patent US11957759B1, “Rapidly accelerated fibrosarcoma (RAF) degrading compounds and associated methods of use” (Arvinas Operations, Inc., priority 2022, dated 2024).
